tested on: proMMP13 production by SW1353 cells; experiment: Production of MMP13 (proMMP13 ELISA) by SW1353 cells upon stimulation with collagen type II; assay type: cell-based; conditions: Homo sapiens, 72 h; SW1353 cells, 40 μg/mL collagen type II, three days; read-out: IC50 [pro-MMP13]
Protocol: The binding of Collagen type II to the DDR2 receptor of the SW1353 cells initiate a signalling cascade resulting in the increase of MMP13 expression. MMP13 is released in the culture medium in its pro-form, the proMMP13 which can be measured with an ELISA.
DDR2 inhibitors are evaluated for their ability to block this signalling cascade and therefore proMMP13 production upon collagen stimulation.
SW1353 cells (ATCC, HTB-94), conserved in liquid nitrogen, are thawed and cultivated at 1.6.10^6 cells in a T75 in RPMI1640 supplemented with 2 mM Glutamin, 1 mM Na-Pyruvate, 10% FCS, at 37° C., 5% CO2 for three days. SW1353 cells are then harvested with trypsin/EDTA and resuspended in RPMI1640 supplemented with 2 mM Glutamin, 1 mM Na-Pyruvate, 25 mM HEPES and 0.5% FCS (assay medium) and inoculated in a 96 well plate at 30 000 cells/well in 100 μL of the assay medium and further incubated 24 hours at 37°, 5% CO2 to enable cell adhesion. For stimulation of the DDR2 receptor, 50 μL of a collagen type II solution 160 μg/mL (final concentration in the well is 40 μg/mL) will be added in each well as well as 50 μL of the different dilutions of the inhibitors (MSCs) from 0.003 μM to 10 μM (final concentration in the plate). Each condition is performed in four-plicates. After three additional days of culture, the supernatant will be harvested for proMMP13 measurement.
The Different Controls Present on Each Plate are Composed of Assay Medium with: Positive control (with the reference compound): 40 μg/mL Collagen type II, 0.03 μM Dasatinib (reference compound) in 0.1% DMSO Negative control (no inhibition): 40 μg/mL Collagen type II and 0.1% DMSO Medium control (no stimulation): 0.005% Acetic acid and 0.1% DMSO All wells contains 0.1% DMSO and 0.005% acetic acid.
The solutions needed are: • Collagen type II is diluted at 2 mg/mL in 0.25% acetic acid. This stock solution can be stored at 4° C. for a week and is diluted 1/12.5 in the assay medium (to obtain 160 μg/mL in 0.02% acetic acid) before being used in the assay. • MSCs from 0.012 to 40 μM in assay medium with 0.4% DMSO (they are then further diluted ¼ in the assay plate) • Dasatinib 0.12 μM in assay medium with 0.4% DMSO (it is then further diluted ¼ in the assay plate) • Acetic acid 0.02% in assay medium (control).
The harvested supernatants are either directly used or stored at −20° C. until use. ProMMP13 is measured with a commercial ELISA kit, according the recommendation of the manufacturer (see Annex). Briefly, 50 μL of each samples are used undiluted and the standard curve is realised in the assay medium. At the end of the assay the ELISA plate is read on a Paradigm MTP-Reader (Beckman Coulter) at 540 (reference wavelength) and 450 nm. All the absorbance values obtained at 450 nm are corrected with the absorbance at 540 nm and a ‘Four Parameter Fit’ is used to establish the standard curve. From the standard curve the concentrations of proMMP13 in all the samples are calculated. All the calculations are realised by the Paradigm software.
The data reported in the database are the % effect of the compounds at the two highest concentrations (10 and 3 μM) as well as the IC50.
% effect at the two highest concentrations is calculated according to the formula: […]
The IC50s are calculated with the software Graph Pad Prism (see tables in Example 1).

Point of comparison: `Cc1cc(Oc2ccc(CNC(=O)Nc3cc(C(F)(F)F)cnc3Cl)cc2C)ccn1` [compound 30], IC50 960 nM. Against it:
- COc1ncc(Cl)cc1NC(=O)NCc1ccc(Oc2ccnc(C)c2)c(C)c1 [compound 28] — 2.8-fold lower, 348 nM
- CNC(=O)c1cc(Oc2ccc(CNC(=O)Nc3cc(C)cnc3OC)cc2)ccn1 [compound 19] — 6.2-fold lower, 155 nM
- Cc1cc(Oc2ccc(CNC(=O)Nc3cc(C(F)(F)F)cn(C)c3=O)cc2C)ccn1 [compound 6] — 3.7-fold lower, 258 nM
- CNC(=O)c1cc(Oc2ccc(CNC(=O)Nc3cc(C(F)(F)F)cn(C)c3=O)cc2C)ccn1 [compound 7] — 29-fold lower, 32.9 nM
- CNC(=O)c1cc(Oc2ccc(CNC(=O)Nc3cc(Cl)cnc3OC)cc2C)ccn1 [compound 23] — 21-fold lower, 45.4 nM
- CNC(=O)c1cc(Oc2ccc(CNC(=O)Nc3cc(Cl)cnc3OC)cc2)ccn1 [compound 21] — 14-fold lower, 69 nM
- COc1ncc(C)cc1NC(=O)NCc1ccc(Oc2ccncc2)cc1 [compound 18] — within 1.5-fold, 733 nM
- CNC(=O)c1cc(Oc2ccc(CNC(=O)Nc3cc(C(F)(F)F)cnc3Cl)cc2C)ccn1 [compound 26] — 23-fold lower, 42.4 nM

same assay, conditions: Homo sapiens, SW1353, 72 h, read-out: IC50 [pro-MMP13]

`CNC(=O)c1cc(Oc2ccc(CNC(=O)Nc3cc(C(F)(F)F)cn(C)c3=O)cc2)ccn1` [compound 8] was tested, and the IC50 was 14.8 nM.

Reference: US20150225369A1, “DDR2 INHIBITORS FOR THE TREATMENT OF OSTEOARTHRITIS” (Merck Patent GmbH, priority 2012, published 2015)
